# Measurements published in patent US20080051372A1, “METHODS UTILIZING CELL-SIGNALING LYSOPHOSPHOLIPIDS” (THE SCRIPPS RESEARCH INSTITUTE, priority 2006, published 2008).
# Tests used:
# [1] = system: cultured embryonic hippocampal neurons; details: cited from earlier work
# [2] = system: astrocyte primary cultures from wild type and LPA double-null newborn mice; assay: astrocyte morphology and GFAP immunostaining after LPA; type: cell-based, mouse; details: 1 μM LPA for 24 hours; wild type and LPA1 LPA2 null astrocytes
# Excerpt: The Generation of Receptor-Null Mice Allows not Only Direct Examination of the systemic roles of LPA receptors in vivo (Contos et al., Requirement of the LPA1 lysophosphatidic acid receptor gene in normal suckling behavior, 2000, PNAS, 97(24):13384-13389, incorporated herein by reference; Contos et al., Characterization of LPA(2) (Edg4) and LPA(I)/LPA(2) (edg2/Edg4) lysophosphatidic acid receptor knockout mice: signaling deficits without obvious pehotypic abnormality attributable to LPA(2), 2002, Mol Cell Bio, 22(19):6921-6929, incorporated herein by reference) but it also contributes for further elucidation of LPA receptor-specific signaling pathways in receptor-null primary cells (Ishii et al., Functional comparisons of the lysophosphatidic acid receptors, LP(A1))/VZG-1/EDG-4, and LP(A3)/EDG-7 in neuronal cell lines using a retrovirus expression system, 2000, Mol. Pharmacology, 58:895-902, incorporated herein by reference). To determine whether LPA effects in the co-culture system are mediated by specific LPA receptors, astrocyte mono layers derived from mice with null mutations in both LPA1 and LPA2 receptors were prepared. Astrocyte primary cultures were prepared from cerebral cortex of wild type and LPA double-null newborn mice. Astrocyte mono layers were kept in DMEM/F12 medium supplemented with 10% fetal calf serum for days until reaching confluence. […]
# [3] = system: cortical neuronal progenitors on retroviral infected LPA1/LPA2 double-null astrocytes; assay: retroviral rescue of LPA1/LPA2 double-null astrocytes, co-culture; type: cell-based, mouse
# Description: Retroviral vectors expressing LPA1 or LPA2 were reported previously (Ishii et al., Functional comparisons of the lysophosphatidic acid receptors, LP(A1)/VZG-1/EDG-4, and LP(A3)/EDG-7 in neuronal cell lines using a retrovirus expression system, 2000, Mol. Pharmacology, 58:895-902, incorporated herein by reference) as depicted in FIG. 8A. LPA1/LPA2 double-null astrocytes were infected with the epitope-tagged LPA1, LPA2, or empty-vector control retrovirus in 4 μg/ml of polybrene to the media of subconfluent proliferating astrocytes plated in a monolayer. Plates were centrifuged (700 g) at 28° C. for 2 hours, and the astrocytes cultured for 48 hours in fresh media. Astrocytes were serum starved for another 24 hours and then used in the assays. Receptor expression was confirmed by epitope-tagged immunolabeling of GFP-positive cells.
# The retroviral infected LPA1/LPA2 double-null astrocytes were treated with LPA. The astrocytes monolayers were co-cultured with cortical neuronal progenitors derived from E14 wild type mice. After 24 hours, cells were immunostained for the neuronal marker, β-tubulin III, and the number of neurons and arborization of their neurites were measured.
# [4] = system: cortical neuronal progenitors plated onto astrocyte monolayers derived from LPA1 LPA2 null mice; assay: co-culture on LPA1 LPA2 null astrocytes previously treated with LPA; type: cell-based, mouse; details: P>0.05
# Description: In order to address the involvement of LPA receptor in LPA-astrocyte effects on neuronal morphogenesis, cortical neuronal progenitors derived from E14 wild type mice were plated onto cortical astrocyte mono layers derived from LPA, LPA2 null mice previously treated with LPA. After 24 hours, cells were immunostained for the neuronal marker, β-tubulin III, and the number of neurons and arborization of their neurites were measured. […] The scale bar in FIG. 8 corresponds to 50 μm.
# [5] = system: TR mouse cerebral cortical immortalized neuroblast cells; assay: LPA-like activity bioassay, cell rounding / neurite retraction; type: cell-based; details: concentrations from 1 to 100 nM of LPA; 15-30 minutes
# Description: LPA-like activity was assayed by measuring morphological changes in TR mouse cerebral cortical immortalized neuroblast cells as previously described (Chun and Jaenisch, Clonal cell lines produced by infection of neocortical neuroblast using multiple oncogenes transduced by retroviruses, 1996, Mol Cell Neurosci, 18:379-383; Hecht et al., Ventricular zone gene-1 (vzg-I) encodes a lysophoshpatidic acid receptor expressed in neurogeneic regions of the developing cerebral cortex, 1996, J Cell Bio, 135:1071-1083, incorporated herein by reference; Ishii et al., Functional comparisons of the lysophosphatidic acid receptors, LPA(A1)IVZG-I/EDG-2, LP(A2)/EDG-4, and LP(A3)/EDG-7 in neuronal cell lines using a retrovirus expression system, 2000, Molecular Pharmacology, 58(5):895-902, incorporated herein by references; Fukushima et al., Lysophosphatidic acid influences the morphology and motility of young, postmitotic cortical neurons, 2002, Mol Cell Neurosci, 20(2):271-282, incorporated herein by reference). […] After this period, cells were fixed with 4% PFA and round cells were counted under phase-contrast optics (A-F). […]
# After this period, cells were fixed with 4% PFA and round cells were counted under phase-contrast optics (A-F) The cell number was expressed by percentage of protophasmic, non-round population. […]
# [6] = system: cortical neuronal progenitors (E14) plated onto cortical astrocyte monolayers; assay: neuron-astrocyte co-culture on astrocytes previously treated with LPA; type: cell-based, mouse
# Description: All animal protocols were approved by the Animal Research Committee of The Scripps Research Institute, conformed to National Institutes of Health guidelines and public law. Astrocyte primary cultures were prepared from cerebral cortex of newborn mice as previously described (de Sampaio e Spohr et al., Neuron-glia interaction effects on GFAP gene: a novel role for transforming growth factor-31, 2002, Eur J Neurosci, 16:2059-2069, incorporated herein by reference and Sousa et al., Glial fibrillary acidic protein gene promoter is differently modulated by transforming growth factor-beta 1 in astrocytes from distinct brain regions, 2004, Eur Neurosci, 19(7):1721-1730, incorporated by reference in its entirety). Astrocytes cultures were generated from C57B1/6 and Swiss mice. Briefly, after the mice were anesthetized, they were decapitated, brain structures were removed and the meninges were carefully stripped off. Dissociated cells were plated onto glass coverslips in 24 wells-plate (Corning Incorporated, NY), previously coated with polyornithine (1.5 μg/ml, mol. wt. 41,000, Sigma Chemical Co., St. Louis, Mo.), in DMEM/F12 medium supplemented with 10% fetal calf serum (Invitrogen, Carlsbad, Calif.). The cultures were incubated at 37° C. in a humidified 5% CO2, 95% air chamber for 10 days until reaching confluence. For experiments with LPA null mice, embryos from LPA, LPA2 double-heterozygous females (on a mixed background C57B1/6×129SW) were genotyped by PCR using DNA isolated from a small part of the tail (Contos et al., Requirement of the LPA, lysophosphatidic acid receptor gene in normal suckling behavior, 2000, PNAS, 97(24):13384-13389, incorporated herein by reference; Contos et al., Characterization of LPA(2) (Edg4) and LPA(I)/LPA(2) (edg2/Edg4) lysophosphatidic acid receptor knockout mice: signaling deficits without obvious pehotypic abnormality attributable to LPA(2), 2002, Mol Cell Bio, 22(19):6921-6929, incorporated herein by reference).
# After reaching confluence, glial mono layers were washed three times with serum-free DMEM/F12 medium and incubated as previously described for an additional day in serum-free medium. Cultures were then treated with 1 μM LPA (Oleoyl-LPA, Avanti Polar Lipids) in DMEM/F12 supplemented with 0.1% fatty-acid free bovine serum albumin (FAFBSA, Sigma) for 4 hours. Control astrocyte carpets were treated with DMEM/F12 supplemented with 0.1% FAFBSA. Medium was then replaced by DMEM/F12 without serum and used as substrate in neuron-astrocyte assays.
# For neuronal cultures, timed-pregnant BALB/c females (Simonsen Laboratories), C57B1/6 females or Swiss females were killed by halothane followed by cervical dislocation, and embryos were removed at the day 14 (E14). Cortical progenitors were prepared from cerebral hemispheres from E14 embryos as previously described (Martinez and Gomes, 2002, Neuritogenesis induced by thyroid hormone-treated astrocytes is mediated by epidermal growth factor/mitogen-activated protein kinase-phosphatidylinositol 3-kinase pathways and involves modulation of extracellular matrix proteins, J Biol Chem, 277:49311-49318, incorporated herein by reference; Sousa et al., 2004, Glial fibrillary acidic protein gene promoter is differently modulated by transforming growth factor-beta 1 in astrocytes from distinct brain regions, 2004, Eur J Neurosci 19(7):1721-17302004, incorporated herein by reference). Briefly, cells were freshly dissociated from cerebral hemispheres and 1×10^5 cells plated onto glial monolayer carpets non-treated or previously treated with LPA or LPA-conditioned medium for 4 hours as previously described. In the case of LPA CM assays, the medium was not replaced after 4 hours of treatment; instead it was left until the end of co-culture. Co-cultures were kept for 24 hours at 37° C. in a humidified 5% CO2, 95% air atmosphere. […]
# [7] = double-null astrocytes infected with either the LPA1 or LPA2 retrovirus, treated with LPA
# [8] = neurons plated onto LPA-treated astrocytes, P<0.05
Substance,neurite outgrowth [1],astrocyte morphology [2],"prevalence of greater than two neurites/neurons [3, 7]","β-tubulin III cells [3, 7]","neuronal differentiation ([3]; double-null astrocytes infected with empty vector control virus (SOO3), primed with LPA)","neuronal population ([4]; LPA1 LPA2 null astrocytes treated with LPA, 24 hours)",neuronal death ([4]; treated vs non-treated LPA1 LPA2 null astrocytes),rounding of TR cells [5],"number of caspase positive cells (activated caspase-3) ([6]; after 24 hours of coculture, control vs treated cultures, P>0.05)","increase in the number of β-tubulin III positive cells ([6]; astrocytes treated with 1 μM LPA for 4 hours, 24 hours co-culture, vs control astrocytes, P<0.05)","decrease in the number of aneuritic neurons [6, 8]","neurons extending three or more neurites [6, 8]","number of neurons with two neurites [6, 8]","total number of cells ([6]; progenitor cells plated onto LPA-astrocyte monolayers, P>0.05)"
cyclic phosphatidic acid [cPA],promoted neurite outgrowth,,,,,,,,,,,,,
Oleoyl-LPA,,did not affect astrocyte morphology,increased prevalence,increased,did not result in an increase,did not affect neuronal population,did not differ,induced rounding,no difference,41%,64%,dramatic increase,significant increase,not altered
